From patent US12692241B2, “Substituted triazine compound” (Nico Therapeutics, Inc., priority 2021, dated 2026) come the findings set out here.

Structures can show the parent of a compound that is named as a salt.

One assay has as its system IL-1β production in THP-1 cells (LPS and ATP; NLRP3 inflammasome activation). The assay can be described thus: THP-1 IL-1β production inhibitory test. The settings on record: Homo sapiens, THP-1, 2 h, PMA-differentiated THP-1 cells, LPS 50 ng/mL and ATP 5 mM, 2 hours, ELISA; read-out: IC50 (nM), IL-1β production. Format: cell-based, human. The procedure:
THP-1 IL-1β Production Inhibitory Test
To THP-1 cells, 50 ng/mL PMA (phorbol myristate acetate, SIGMA, P1585) was added at 37° C. and then the cells were cultured for 2 days. […] The cells were cultured at 37° C. for 15 minutes. LPS (lipopolysaccharide, SIMGA, L2880) and ATP (adenosine triphosphate, SIGMA, A2383) were added such that the final concentrations of them became 50 ng/mL and 5 mM, respectively. The cells were cultured at 37° C. for 2 hours. The supernatant was collected and the concentration of IL-1β was measured by ELISA (DuoSet ELISA human IL-1β, R&D Systems, DY201). The concentration of IL-1β was plotted against the logarithm of the concentration of the test compound, and the IC50 value was calculated by sigmoidal Emax model nonlinear regression analysis.
In general terms: An ELISA detects its analyte on a solid surface through an enzyme-linked reagent.
As to `Cc1nc(NC2CCS(=O)(=O)CC2)nnc1-c1ccc(C(F)(F)F)cc1O` [Example 12], the IC50 is 53 nM.
On to `Cc1nc(N[C@@H]2CCNC2=O)nnc1-c1ccc(C(F)(F)F)cc1O` [Example 43], for which the IC50 is 19 nM.
Consider `Cc1nc(N[C@H]2CCCNC2)nnc1-c1ccc(C(F)(F)F)cc1O` [Example 137], for which the IC50 stood at 1500 nM.
`Cc1nc(N[C@@H]2CCCN(C3CNC3)C2)nnc1-c1ccc(C(F)(F)F)cc1O` [Example 172]: the IC50 was 35 nM.
Take `Cc1nc(N[C@@H]2CNC(=O)C2)nnc1-c1ccc(C(F)(F)F)cc1O` [Example 63]: the half-maximal inhibitory concentration (IC50) was 200 nM.
On to `CC[C@@H](O)CNc1nnc(-c2ccc(C(F)(F)F)cc2O)c(C)n1` [Example 14], for which the IC50 was 62 nM.
Still for that read-out and setting: the figure for `Cc1nc(N[C@H]2CCC(F)(F)C2)nnc1-c1ccc(C(F)(F)F)cc1O` [Example 7] is 28 nM.
The same measure, in the same setting: then `Cc1nc(N[C@H]2CNC2=O)nnc1-c1ccc(C(F)(F)F)cc1O` [Example 62], with 28 nM; and `Cc1nc(Nc2ccn(C)n2)nnc1-c1ccc(C(F)(F)F)cc1O` [Example 97], with 150 nM; and `Cc1ccc(-c2nnc(N[C@@H]3CCCC[C@H]3N)nc2C)c(O)c1` [Example 147], with 28 nM.
Still for that read-out and setting: the figure for `Cc1nc(N[C@@H]2CCCC[C@@]2(C)O)nnc1-c1ccc(C(F)(F)F)cc1O` [Example 47] is 8.8 nM; for `CC(C)c1nc(N[C@@H]2CCCC[C@H]2O)nnc1-c1ccc(C(F)(F)F)cc1O` [Example 128] it is 7.9 nM; for `Cc1nc(Nc2cnn(C)c2)nnc1-c1ccc(C(F)(F)F)cc1O` [Example 93] it is 130 nM.
`Cc1nc(N[C@@H]2CCC[C@H](O)C2)nnc1-c1ccc(C2CC2)cc1O` [Example 83]: the IC50 was determined as 32 nM.
In the case of `Cc1nc(N[C@H]2CCNC2=O)nnc1-c1ccc(OC(F)(F)F)cc1O` [Example 72], the IC50 was determined as 8.3 nM.
The same measure, in the same setting: the figure for `CC(=O)N[C@H]1C[C@@H](CNc2nnc(-c3ccc(C(F)(F)F)cc3O)c(C)n2)C1` [Example 157] is 5.7 nM; for `Cc1nc(N[C@@H]2CCC[C@@H](O)C2)nnc1-c1ccc(C(F)(F)F)cc1O` [Example 166] it is 23 nM.
Same read-out and setting: then `Cc1ccc(-c2nnc(N[C@@H]3CCCC[C@@]3(C)O)nc2C)c(O)c1` [Example 55], with 11 nM.
The same measure, in the same setting: then `Cc1ccc(-c2nnc(N[C@@H]3CCOC[C@H]3O)nc2C2CC2)c(O)c1` [Example 114], with 33 nM; and `Cc1nc(N[C@H]2C[C@](C)(O)C2)nnc1-c1ccc(C(F)(F)F)cc1O` [Example 13], with 260 nM; and `Cc1nc(NCC2(N)CCOCC2)nnc1-c1ccc(C(F)(F)F)cc1O` [Example 171], with 240 nM.
Turning to `Oc1cc(C(F)(F)F)ccc1-c1nnc(N[C@@H]2CCCC[C@H]2O)nc1C(F)F` [Example 118], the IC50 stood at 47 nM.
For the molecule `COc1ccc(-c2nnc(N[C@@H]3CCC[C@H](O)C3)nc2C)c(O)c1` [Example 168], the IC50 worked out at 26 nM.
Still for that read-out and setting: the figure for `Cc1nc(N[C@@H]2CC[C@@H](C#N)C2)nnc1-c1ccc(C(F)(F)F)cc1O` [Example 103] is 30 nM; for `O=C1NCC[C@@H]1Nc1nnc(-c2ccc(OC(F)(F)F)cc2O)c(C2CC2)n1` [Example 126] it is 20 nM.
As to `Cc1nc(N[C@@H]2CCOC[C@H]2O)nnc1-c1ccc(OC(F)(F)F)cc1O` [Example 32], the IC50 was determined as 10 nM.
Still for that read-out and setting: the figure for `Cc1ccc(-c2nnc(N[C@@H]3CCOC[C@H]3O)nc2C)c(O)c1` [Example 52] is 21 nM; for `Cc1nc(N[C@H]2C[C@@](C)(O)C2)nnc1-c1ccc(Cl)cc1O` [Example 49] it is 14 nM.
The same measure, in the same setting: then `COc1ccc(-c2nnc(N[C@H]3C[C@@](C)(O)C3)nc2C)c(O)c1` [Example 60], with 38 nM; and `Cc1ccc(-c2nnc(N[C@@H]3CCCC[C@H]3O)nc2C2CC2)c(O)c1` [Example 117], with 19 nM; and `Cc1nc(N[C@@H]2CCCCC[C@H]2O)nnc1-c1ccc(C(F)(F)F)cc1O` [Example 76], with 16 nM.
Still for that read-out and setting: then `Cc1nc(N[C@H]2CCN(C)C2=O)nnc1-c1ccc(C(F)(F)F)cc1O` [Example 74], with 620 nM.
With `Cc1nc(N[C@@H]2CCNC2)nnc1-c1ccc(C(F)(F)F)cc1O` [Example 133], the IC50 worked out at 95 nM.
Still for that read-out and setting: then `CC(=O)N1CCC[C@H]1CNc1nnc(-c2ccc(C(F)(F)F)cc2O)c(C)n1` [Example 151, 1-((2S)-2-[({6-[2-hydroxy-4-(trifluoromethyl)phenyl]-5-methyl-1,2,4-triazin-3-yl}amino)methyl]pyrrolidin-1-yl)ethan-1-one], with 35 nM; and `CC(=O)N[C@@H]1CCCC[C@H]1Nc1nnc(-c2ccc(C(F)(F)F)cc2O)c(C)n1` [Example 152, N-[(1R,2R)-2-({6-[2-hydroxy-4-(trifluoromethyl)phenyl]-5-methyl-1,2,4-triazin-3-yl}amino)cyclohexyl]acetamide], with 22 nM.
The same measure, in the same setting: the figure for `Cc1nc(N[C@@H]2CCCC[C@H]2O)nnc1-c1cc(F)c(C(F)(F)F)cc1O` [Example 169] is 38 nM; for `Cc1nc(N[C@H]2C[C@@](C)(O)C2)nnc1-c1ccc(C2CC2)cc1O` [Example 77] it is 67 nM.
The same measure, in the same setting: then `Cc1nc(N[C@H]2C[C@H](CO)C2)nnc1-c1ccc(C(F)(F)F)cc1O` [Example 99], with 9.4 nM; and `Cc1nc(N[C@@H]2CCOC[C@@]2(C)O)nnc1-c1ccc(C(F)(F)F)cc1O` [Example 80], with 12 nM.
As for `CC(=O)N[C@H]1C[C@H](CNc2nnc(-c3ccc(C(F)(F)F)cc3O)c(C)n2)C1` [Example 156], the IC50 came to 23 nM.
Still for that read-out and setting: then `Cc1nc(N[C@H]2CNC(=O)C2)nnc1-c1ccc(C(F)(F)F)cc1O` [Example 66], with 150 nM; and `Cc1nc(N[C@@H]2COCC[C@H]2O)nnc1-c1ccc(C(F)(F)F)cc1O` [Example 21], with 290 nM; and `Cc1nc(N[C@H]2CN(C)CCC2(F)F)nnc1-c1ccc(C(F)(F)F)cc1O` [Example 180], with 180 nM.
Same read-out and setting: the figure for `CC(=O)N1CCC[C@@H](CNc2nnc(-c3ccc(C(F)(F)F)cc3O)c(C)n2)C1` [Example 153] is 7.8 nM.
With `Cc1nc(N[C@H]2C[C@@H](CO)C2)nnc1-c1ccc(C(F)(F)F)cc1O` [Example 100], the IC50 amounted to 6.4 nM.
Still for that read-out and setting: then `C[C@]1(O)C[C@@H](Nc2nnc(-c3ccc(OC(F)(F)F)cc3O)c(C3CC3)n2)C1` [Example 120], with 83 nM; and `Cc1nc(NCc2cccnn2)nnc1-c1ccc(C(F)(F)F)cc1O` [Example 28], with 630 nM.
Still for that read-out and setting: the figure for `Cc1nc(N[C@H]2CC[C@]2(C)O)nnc1-c1ccc(C(F)(F)F)cc1O` [Example 64] is 62 nM; for `Cc1nc(N[C@@H]2CCCCNC2=O)nnc1-c1ccc(C(F)(F)F)cc1O` [Example 46] it is 30 nM; for `Cc1nc(NC[C@@H]2CCCN2)nnc1-c1ccc(C(F)(F)F)cc1O` [Example 134] it is 38 nM.
Still for that read-out and setting: then `C[C@]1(O)C[C@@H](Nc2nnc(-c3ccc(Cl)cc3O)c(C3CC3)n2)C1` [Example 121], with 43 nM; and `Cc1cc(C(F)(F)F)cc(O)c1-c1nnc(N[C@@H]2CCCC[C@H]2O)nc1C` [Example 165], with 6.7 nM.
Regarding `O=C1NCC[C@@H]1Nc1nnc(-c2ccc(C(F)(F)F)cc2O)c(C2CC2)n1` [Example 127], the IC50 was found to be 10 nM.
Consider `Cc1nc(N[C@@H]2CCCC[C@H]2N(C)C)nnc1-c1ccc(C(F)(F)F)cc1O` [Example 177], for which the IC50 turned out to be 48 nM.
Turning to `Oc1cc(C(F)(F)F)ccc1-c1nnc(N[C@@H]2CCCC[C@H]2O)nc1-c1ccccc1` [Example 98], the IC50 worked out at 280 nM.
Regarding `Cc1nc(N[C@@H]2CCCC[C@H]2O)nnc1-c1ccc(C(C)C)cc1O` [Example 36], the IC50 came to 17 nM.
Same read-out and setting: then `Cc1nc(N[C@@H]2CCCC[C@H]2O)nnc1-c1ccc(C#N)cc1O` [Example 25], with 77 nM; and `Cc1nc(NCCC#N)nnc1-c1ccc(C(F)(F)F)cc1O` [Example 101], with 130 nM; and `Cc1nc(N[C@@H]2CCCN(CCC#N)C2)nnc1-c1ccc(C(F)(F)F)cc1O` [Example 181, 3-[(3R)-3-({6-[2-hydroxy-4-(trifluoromethyl)phenyl]-5-methyl-1,2,4-triazin-3-yl}amino)piperidin-1-yl]propanenitrile], with 12 nM.
On the same count and under the same terms, then `Cc1nc(N[C@H]2C[C@@](C)(O)C2)nnc1-c1ccc(OC(F)(F)F)cc1O` [Example 50], with 31 nM; and `Cc1nc(NC2(CO)CCC2)nnc1-c1ccc(C(F)(F)F)cc1O` [Example 23], with 23 nM; and `Cc1nc(NC[C@H](C)CCN)nnc1-c1ccc(C(F)(F)F)cc1O` [Example 136], with 61 nM.
Take `Oc1cc(OC(F)(F)F)ccc1-c1nnc(N[C@@H]2CCOC[C@H]2O)nc1C1CC1` [Example 112]: the IC50 is 18 nM.

Staying with this assay, now noted: Homo sapiens, THP-1, 2 h, read-out: IC50 (nM), IL-1β production.
Turning to `Cc1nc(NC[C@@H](C)N)nnc1-c1ccc(C(F)(F)F)cc1O` [Example 148, 2-(3-{[(2R)-2-aminopropyl]amino}-5-methyl-1,2,4-triazin-6-yl)-5-(trifluoromethyl)phenol monohydrochloride], the IC50 was determined as 150 nM.
Same read-out and setting: the figure for `Cc1nc(N[C@@H]2CCCC[C@H]2O)nnc1-c1ccc(OC(F)F)cc1O` [Example 186, 5-(difluoromethoxy)-2-(3-{[(1R,2R)-2-hydroxycyclohexyl]amino}-5-methyl-1,2,4-triazin-6-yl)phenol monohydrochloride] is 11 nM.

A word on the IC50: it is the point on the concentration scale where inhibition reaches its midpoint.
